The text below walks through data of patent US20020114734A1, “Microplate thermal shift assay apparatus for ligand development and multi-variable protein chemistry optimization” (priority 1996, published 2002).

The test system of experiment [1] is D(II) FGF receptor 1. Description: Microplate thermal shift screen of biochemical conditions, D(II) FGF receptor 1 stability. On the set-up: species or system human. The conditions noted are these: for effect on D(II) FGF receptor 1 stability: additives in 50 mM MOPS pH 7, 0.1 M NaCl. Here is the method:
The microplate thermal shift assay was used to simultaneously screen the effects of multiple biochemical conditions on D(II) FGF receptor 1 stability. The assays were performed by mixing 1 μL of D(II) FGFR1 (from a 500 μM concentrated stock in 50 mM HEPES pH 7.5) with 4 μL of each biochemical condition in wells of a 96-well polycarbonate microtiter plate. Final protein concentration after mixing was 100 μM and final 1,8-ANS concentration was 200 μM. Biochemical conditions were tested as follows: The pH's tested were 5 (Na acetate), 6 (MES), 7 (MOPS), 8 (HEPES), and 9 (CHES), with final buffer concentrations of 50 mM.
The salt concentrations tested were 0.1 or 0.5 M NaCl. Additives were tested in 50 mM MOPS, pH 7, 0.1 M NaCl, at final concentrations of 1 mM (EDTA, dithiothreitol), 10 mM (CaCl2, MgCl2, MgSO4, NiSO4), 50 mM (arginine), 100 mM ((NH4)2SO4, LiSO4, Na2SO4, ZnSO4), 5% w/v (polyethylene glycol 6000), and 10% v/v glycerol.
Thermal denaturation profiles were generated as previously described for thrombin, aFGF, Factor D, and Factor Xa, by incremental heating of the microplate followed by a fluorescence reading after each temperature increase. Data were analyzed by non-linear least squares fitting as described previously.

Experiment [2] has as its target T1, human α-thrombin (Homo sapiens, UniProt P00734).
T1 construct: A stock human α-thrombin solution; purchased Enzyme Research Labs
The experiment in a line: Microplate thermal shift screen of biochemical conditions, thrombin stability. The conditions noted are these: for effect on human α-thrombin stability: 10% glycerol, 10 mM dithiothreitol. Here is the method: The microplate thermal shift assay was used, with four different fluorophores, to simultaneously screen the effects of multiple pH values, sodium chloride concentrations, and reduction-oxidation compounds on human α-thrombin stability. […] Reaction volume was 100 μL.

Experiment [3] deals with human urokinase-type plasminogen activator (u-PA). The experiment in a line: Miniaturized (5 μL) microplate thermal shift assay of urokinase. In kind it is binding. Conditions: CMK-u-PA complex, MOPS pH 7, NaCl, 1,8-ANS. The source says: Another target molecule analyzed was human urokinase-type plasminogen activator (u-PA). U-PA enzymatically converts plasminogen into the active protease plasmin. U-PA is involved in tissue remodeling, cellular migration and metastases. The gene for u-PA was obtained from ATCC (Rockville, Md.) and modified to appropriately express active enzyme in E. coli. u-PA was cloned, overexpressed in E. coli, and purified using procedures similar to those described by Winkler et al. (Biochemistry 25:4041-4045 (1986)). […] The experiment was performed in the miniaturized format in 5 μL well volume. One μL of concentrated CMK-u-PA (13 g/L, 371.4 μM) was added to 4 μL of 62.5 mM MOPS, pH 7, 125 mM NaCl, and 250 μM 1,8-ANS, in multiple wells of a 96-well polycarbonate V-bottom microtiter plate. A thermal denaturation curve was generated as previously described for thrombin, aFGF, D(II)FGFR1, Factor D, and Factor Xa, by incremental heating of the microplate followed by a fluorescence reading after each temperature increase.

Experiment [4] relates to human urokinase. The experiment in a line: Microplate thermal shift screen of biochemical conditions, urokinase stability. The conditions noted are these: 0.1 or 0.5 M NaCl; 10% glycerol. The method, then:
The microplate thermal shift assay was used to simultaneously screen the effects of multiple biochemical conditions on human urokinase stability. This experiment was performed by mixing 1 μL of urokinase (from a […] concentrated stock in 20 mM Tris pH 8) with 4 μL of each biochemical condition in wells of a 96-well polycarbonate microtiter plate. Final protein concentration after mixing was 74 μM and final 1,8-ANS concentration was 200 μM. Biochemical conditions were tested as follows: The pH's tested were 5 (acetate), 6 (MES), 7 (MOPS), 8 (HEPES), and 9 (CHES) with final buffer concentrations of 50 mM. The salt concentrations tested were 0.1 or 0.5 M NaCl. Glycerol was tested at 10% v/v in 50 mM MOPS, pH 7, 0.1 M NaCl.
Thermal denaturation profiles were generated as previously described for thrombin, aFGF, Factor D, D(II) FGFR1, and Factor Xa, by incremental heating of the microplate followed by a fluorescence reading after each temperature increase. Data were analyzed by non-linear least squares fitting as described previously.

Experiment [5] deals with thrombin (Homo sapiens, UniProt P00734). Conditions: 5 mM Tris buffer pH 8.0, 0.1% PEG, 25° C.; read-out: Kd of Na+ binding site; cited from earlier work.
The target of experiment [6] is T2, acidic fibroblast growth factor (aFGF) (Homo sapiens, UniProt P05230).
T2 construct: host or cells: E. coli
Description: Microplate thermal shift assay for ligands binding to aFGF, turbidity as signal. The source says:
The second therapeutic receptor tested in the microplate thermal shift assay was acidic fibroblast growth factor (aFGF), a growth factor that plays a key role in angiogenesis (Folkman, J. et al., J. Biol. Chem. 267:10931-10934 (1992)). A synthetic gene for this protein was purchased from R&D Systems (Minneapolis, Minn.), and was cloned and expressed in E. coli using methods similar to those described for basic fibroblast growth factor (bFGF) (Thompson, L. D. et al., Biochemistry 33:3831-3840 (1994); Pantoliano, M. W. et al., Biochemistry 33:10229-10248 (1994); Springer, B. A. et al., J. Biol. Chem. 269:26879-26884 (1994)). Recombinant aFGF was then purified by heparin-sepharose affinity chromatography as described (Thompson, L. D. et al., Biochemistry 33:3831-3840 (1994)). aFGF is also known to bind heparin/heparan, which is a cofactor for mitogenic activity. […] A microplate thermal assay of these compounds was set up in a way similar to that described above for human α-thrombin. […] The affinity constants covered a fairly broad range of binding affinities, with pentosan PSO4 showing the highest affinity.

Experiment [7] deals with T3, heparin binding site of basic fibroblast growth factor (bFGF) (Homo sapiens, UniProt P09038).
T3 construct: host or cells: E. coli
Description: Microplate thermal shift assay for ligands binding to bFGF. Conditions: read-out: binding affinity. From the text:
The microplate thermal shift assay was used to assess ligands for binding to the heparin binding site of basic fibroblast growth factor (bFGF). The gene for bFGF was purchased from R&D Systems and was cloned and expressed in E. coli as previously described (Thompson, L. D. et al., Biochemistry 33:3831-3840 (1994); Pantoliano, M. W. et al., Biochemistry 33:10229-10248 (1994); Springer, B. A. et al., J. Biol. Chem. 269:26879-26884 (1994)).

Experiment [8] deals with T4, D(II) FGFR1 (Homo sapiens, UniProt P11362).
T4 construct: hexa-histidine (N); made in house
T4 sequence (P11362 158-246 limits assumed): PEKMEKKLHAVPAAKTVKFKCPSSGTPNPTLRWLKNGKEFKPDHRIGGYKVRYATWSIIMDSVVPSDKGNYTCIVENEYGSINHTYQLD
The experiment in a line: Miniaturized (10 μL) microplate thermal shift assay. In kind it is binding. The method, then:
Recombinant D(II) FGFR1 was purified from inclusion bodies and purified by affinity chromatography on heparin sepharose. A stock solution of D(II) FGFR1 (15 mg/mL; 1.1 mM) was diluted to 50 μM in assay buffer (50 mM Hepes, pH 7.5, 0.1 M NaCl). The assay volume was 10 μL and the concentration of 1,8-ANS was 250 μM.

Each structure is given as a SMILES string. Like-named read-outs stand apart in the source and are kept apart here. Where a SMILES comes first, the peptide text is derived from it. The star is where a group is joined. CH2Cl = ClC*

T2 sequence (P05230 whole entry, species assumed): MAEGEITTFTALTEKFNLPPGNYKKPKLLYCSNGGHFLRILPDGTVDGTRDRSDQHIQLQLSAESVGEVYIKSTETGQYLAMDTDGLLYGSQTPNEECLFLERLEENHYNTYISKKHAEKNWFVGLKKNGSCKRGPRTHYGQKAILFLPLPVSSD
T3 sequence (P09038 134-288, species assumed): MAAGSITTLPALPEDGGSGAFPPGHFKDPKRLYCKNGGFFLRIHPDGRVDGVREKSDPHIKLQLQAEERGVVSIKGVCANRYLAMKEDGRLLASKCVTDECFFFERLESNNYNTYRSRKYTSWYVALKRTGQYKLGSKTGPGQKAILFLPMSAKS

With `O[C@H](CS)[C@H](O)CS` (racemic) [dithiothreitol], in experiment [1], the “effect on D(II) FGF receptor 1 stability” value is given as “destabililzed the protein”. Also, the “effect on human α-thrombin stability” value in experiment [2] is “destabilizing effect”.
With `N.N.O=S(=O)(O)O` [(NH4)2SO4], the “effect on D(II) FGF receptor 1 stability” value in experiment [1] is listed as “stabilizing effects”.
As for `N=C(N)NCCC[C@H](NC(=O)CNC(=O)[C@@H](N)CCC(=O)O)C(=O)CCl` [CMK, glu-gly-arg-chloromethylketone] (H-Glu-Gly-Arg-CH2Cl), in experiment [3], the Tm is 81 °C.
On to `O=S(=O)([O-])[O-].[Li+].[Li+]` [Li2SO4], for which the “effect on D(II) FGF receptor 1 stability” value in experiment [1] is reported as “stabilizing effects”.
`O=S(=O)([O-])[O-].[Mg+2]` [MgSO4]: the “effect on D(II) FGF receptor 1 stability” value in experiment [1] is “stabilized the protein”; in experiment [1] (listed as Mg2SO4), “stabilizing effects”.
For the molecule `O=S(=O)([O-])[O-].[Na+].[Na+]` [Na2SO4], the “effect on D(II) FGF receptor 1 stability” value in experiment [1] was “stabilizing effects”.
On to `[Cl-].[Na+]` [NaCl, sodium chloride], for which the “effect on human urokinase stability” value in experiment [4] was “stabilized the protein”. Besides, the ΔTm result in experiment [1] (NaCl concentration increased from 0.1 to 0.5 M) was “about 5 °C”; in experiment [2] (NaCl concentration increased from 0 to 0.5 M) it was “about 12 °C”. In addition, the Kd is approximately 6000 µM in experiment [2] (near the Tm (53° C.), 50 mM Hepes pH 8.0, zero and 0.10 M NaCl, read-out: NaCl binding (estimated with equation (1))); 30000 ± 3000 µM in experiment [5].
For `Cc1ccc(C(=O)Nc2ccc(S(=O)(=O)O)c3cc(S(=O)(=O)O)cc(S(=O)(=O)O)c23)cc1NC(=O)c1cccc(NC(=O)Nc2cccc(C(=O)Nc3cc(C(=O)Nc4ccc(S(=O)(=O)O)c5cc(S(=O)(=O)O)cc(S(=O)(=O)O)c45)ccc3C)c2)c1` [Suramin, suramin], the Tm in experiment [6] (aFGF/ligand, aFGF 0.25 mg/mL, ligand 47-200 μM, turbidity) is 330.15 ° K. The Kd in experiment [6] (equation (1), estimated ΔHu 60.0 kcal/mole, ΔCpu 0.95 kcal/mole-°K, read-out: Kd at Tm) was 3.22 µM; in experiment [6] (equation (3), ΔHL estimated −10.0 kcal/mole, read-out: Kd at 298° K Observed) it was 0.622 µM; in experiment [7], 3.5 µM. Also, the ΔTm in experiment [6] (relative to aFGF alone (317.15 ° K)) came to 13.0 ° K.
For the molecule `O=C(NCCCNC(=O)[C@H](OS(=O)(=O)O)[C@@H](OS(=O)(=O)O)[C@H](O[C@@H]1O[C@H](COS(=O)(=O)O)[C@H](OS(=O)(=O)O)[C@H](OS(=O)(=O)O)[C@H]1OS(=O)(=O)O)[C@@H](COS(=O)(=O)O)OS(=O)(=O)O)[C@H](OS(=O)(=O)O)[C@@H](OS(=O)(=O)O)[C@H](O[C@@H]1O[C@H](COS(=O)(=O)O)[C@H](OS(=O)(=O)O)[C@H](OS(=O)(=O)O)[C@H]1OS(=O)(=O)O)[C@@H](COS(=O)(=O)O)OS(=O)(=O)O` [aprosulate], in experiment [8] (aprosulate 300 uM), the “unfolding transition (Tm)” value is reported as “about 320 K”. Further, in experiment [8] (aprosulate 300 uM, 50 μM D(II) FGFR1, 10 μL), the “increase of unfolding transition” value is “about 8 K”. In experiment [8] (estimate, read-out: binding affinity at the Tm), the Kd is approximately 18 µM.
On to `N=C(N)NCCC[C@H](N)C(=O)O` [arginine], for which the “effect on D(II) FGF receptor 1 stability” value in experiment [1] is given as “stabilized the protein”.
In the case of `OCC(O)CO` [glycerol], in experiment [4], the “effect on human urokinase stability” value is reported as “stabilized the protein”. The “effect on D(II) FGF receptor 1 stability” value in experiment [1] is on record as “stabilized the protein”. Also, the “effect on human α-thrombin stability” value in experiment [2] is reported as “stabilizing effect”.
